Source: ChEMBL document CHEMBL1201862, “PubChem BioAssay data set” (2004)
The source made the active and inactive calls.

What was measured:
[1] = target: T1, Sentrin-specific protease 6 (Homo sapiens, UniProt Q9GZR1); format: functional
T1 sequence (Q9GZR1 whole entry): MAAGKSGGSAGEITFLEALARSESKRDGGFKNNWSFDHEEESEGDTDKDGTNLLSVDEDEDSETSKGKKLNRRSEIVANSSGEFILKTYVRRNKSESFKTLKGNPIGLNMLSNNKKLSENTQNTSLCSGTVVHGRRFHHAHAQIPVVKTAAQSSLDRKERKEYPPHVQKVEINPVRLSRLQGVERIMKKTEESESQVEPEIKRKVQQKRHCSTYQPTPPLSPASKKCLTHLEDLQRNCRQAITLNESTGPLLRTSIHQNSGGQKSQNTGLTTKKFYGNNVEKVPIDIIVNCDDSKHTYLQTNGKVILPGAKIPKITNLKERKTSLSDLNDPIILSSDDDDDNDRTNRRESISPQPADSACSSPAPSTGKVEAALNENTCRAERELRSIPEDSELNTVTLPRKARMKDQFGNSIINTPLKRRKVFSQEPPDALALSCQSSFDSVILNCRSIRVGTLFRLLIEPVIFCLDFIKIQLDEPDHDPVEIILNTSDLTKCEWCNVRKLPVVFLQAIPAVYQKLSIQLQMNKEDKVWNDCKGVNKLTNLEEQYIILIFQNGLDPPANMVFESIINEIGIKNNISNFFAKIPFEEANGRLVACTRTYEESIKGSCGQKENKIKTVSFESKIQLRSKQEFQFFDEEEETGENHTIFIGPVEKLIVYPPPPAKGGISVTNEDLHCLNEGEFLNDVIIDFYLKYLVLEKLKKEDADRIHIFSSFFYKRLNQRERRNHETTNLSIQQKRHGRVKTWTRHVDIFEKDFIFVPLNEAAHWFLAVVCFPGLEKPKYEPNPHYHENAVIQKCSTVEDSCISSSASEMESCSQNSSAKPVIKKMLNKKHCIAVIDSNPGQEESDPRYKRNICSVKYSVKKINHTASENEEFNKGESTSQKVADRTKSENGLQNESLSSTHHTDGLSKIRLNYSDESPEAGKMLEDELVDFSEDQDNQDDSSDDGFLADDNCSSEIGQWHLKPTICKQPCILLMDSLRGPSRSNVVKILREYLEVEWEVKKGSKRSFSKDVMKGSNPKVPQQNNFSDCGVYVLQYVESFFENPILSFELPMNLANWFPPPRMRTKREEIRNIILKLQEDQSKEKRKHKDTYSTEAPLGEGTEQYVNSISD

[2] = target: T2, Sentrin-specific protease 8 (Homo sapiens, UniProt Q96LD8); format: functional;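 also: luminescence read-out of SENP8 inhibition, dose-response confirmation following an ultra-high-throughput screen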
T2 sequence (Q96LD8 whole entry): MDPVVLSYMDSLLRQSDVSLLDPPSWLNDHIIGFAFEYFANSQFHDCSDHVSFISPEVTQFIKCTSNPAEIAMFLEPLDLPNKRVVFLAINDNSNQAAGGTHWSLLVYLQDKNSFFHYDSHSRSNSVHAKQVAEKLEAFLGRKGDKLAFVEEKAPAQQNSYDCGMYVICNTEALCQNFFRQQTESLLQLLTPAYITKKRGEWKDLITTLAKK

[3] = target: T3, Sentrin-specific protease 7 (Homo sapiens, UniProt Q9BQF6); format: functional;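 also: Luminescence-based dose-response confirmation of ultra-high-throughput screening hits, measuring inhibition of SENP7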
T3 sequence (Q9BQF6 whole entry): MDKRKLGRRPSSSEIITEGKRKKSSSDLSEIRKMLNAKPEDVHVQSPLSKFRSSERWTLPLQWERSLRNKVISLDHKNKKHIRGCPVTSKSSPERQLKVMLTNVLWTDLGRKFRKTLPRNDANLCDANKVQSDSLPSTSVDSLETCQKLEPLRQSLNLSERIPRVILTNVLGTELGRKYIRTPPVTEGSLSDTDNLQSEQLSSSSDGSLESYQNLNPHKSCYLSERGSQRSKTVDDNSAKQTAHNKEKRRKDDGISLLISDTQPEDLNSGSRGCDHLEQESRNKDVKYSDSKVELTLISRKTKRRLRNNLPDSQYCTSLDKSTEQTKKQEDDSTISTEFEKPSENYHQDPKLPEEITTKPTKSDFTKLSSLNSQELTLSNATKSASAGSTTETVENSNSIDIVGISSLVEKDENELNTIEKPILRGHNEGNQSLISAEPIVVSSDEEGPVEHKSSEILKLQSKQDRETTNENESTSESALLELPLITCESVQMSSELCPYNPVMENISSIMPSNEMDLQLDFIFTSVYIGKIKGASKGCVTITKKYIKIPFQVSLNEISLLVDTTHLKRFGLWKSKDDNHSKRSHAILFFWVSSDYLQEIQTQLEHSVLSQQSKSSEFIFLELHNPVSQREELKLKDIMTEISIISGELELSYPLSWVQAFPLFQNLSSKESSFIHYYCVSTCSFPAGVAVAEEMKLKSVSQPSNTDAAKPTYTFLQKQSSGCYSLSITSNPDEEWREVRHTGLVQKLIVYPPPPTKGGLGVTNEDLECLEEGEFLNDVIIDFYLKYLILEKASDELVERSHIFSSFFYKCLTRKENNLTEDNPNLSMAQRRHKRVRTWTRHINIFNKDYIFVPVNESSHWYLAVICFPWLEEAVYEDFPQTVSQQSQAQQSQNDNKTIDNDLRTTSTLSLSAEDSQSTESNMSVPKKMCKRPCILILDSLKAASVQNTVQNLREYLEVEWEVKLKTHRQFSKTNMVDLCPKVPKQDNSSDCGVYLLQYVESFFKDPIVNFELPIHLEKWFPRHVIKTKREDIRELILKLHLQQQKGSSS

Caspase-3 [4] = target: T4, Caspase-3 (Homo sapiens, UniProt P42574); format: functional
T4 sequence (P42574 whole entry): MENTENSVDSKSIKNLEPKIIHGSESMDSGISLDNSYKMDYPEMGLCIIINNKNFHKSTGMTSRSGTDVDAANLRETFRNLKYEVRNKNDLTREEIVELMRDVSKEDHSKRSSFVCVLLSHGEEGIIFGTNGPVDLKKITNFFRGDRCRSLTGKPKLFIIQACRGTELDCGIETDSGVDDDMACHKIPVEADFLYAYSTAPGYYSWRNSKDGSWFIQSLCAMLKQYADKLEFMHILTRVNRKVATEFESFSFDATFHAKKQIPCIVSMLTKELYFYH

[5] = target: T3, Sentrin-specific protease 7; experiment: SENP7 protease inhibitors, SAR follow-up, biochemical, luminescence (AID 504497); format: functional
[6] = target: T1, Sentrin-specific protease 6; experiment: SAR Analysis of small molecule inhibitors of Sentrin-specific protease 6 (SENP6) using a Luminescent assay. [Related pubchem assays (depositor defined):AID2582, AID2599]; format: functional
Caspase-3 [7] = target: T4, Caspase-3; experiment: SAR Analysis of small molecule inhibitors of Sentrin-specific proteases (SENPs) using a Caspase-3 Selectivity assay. [Related pubchem assays (depositor defined):AID2540, AID2599, AID434973, AID489001]; format: functional
[8] = target: T2, Sentrin-specific protease 8; experiment: SENP8 protease inhibitors, SAR follow-up, biochemical, luminescence (AID 504501); format: functional
Mu-type opioid receptor = Mu-type opioid receptor (Homo sapiens, UniProt P35372); experiment: HTS Image-Based Screen for Agonists of the MOR Receptor. [Related pubchem assays (depositor defined):AID1777, AID1785, AID1786, AID2133]; format: functional;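 also: imaging of beta-arrestin GFP recruitment into spots after receptor activation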
Sequence of Mu-type opioid receptor (P35372 whole entry): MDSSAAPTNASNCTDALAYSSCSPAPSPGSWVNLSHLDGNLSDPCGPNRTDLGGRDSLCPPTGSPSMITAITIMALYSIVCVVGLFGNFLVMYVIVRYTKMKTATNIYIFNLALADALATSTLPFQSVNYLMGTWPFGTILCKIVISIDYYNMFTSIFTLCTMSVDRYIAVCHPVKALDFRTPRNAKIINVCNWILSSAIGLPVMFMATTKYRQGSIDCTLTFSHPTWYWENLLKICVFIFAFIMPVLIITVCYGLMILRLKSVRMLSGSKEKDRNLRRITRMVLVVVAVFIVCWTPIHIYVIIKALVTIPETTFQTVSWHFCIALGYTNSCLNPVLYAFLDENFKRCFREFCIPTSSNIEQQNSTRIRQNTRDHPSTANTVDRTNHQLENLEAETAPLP

[9] = target: T5, Delta-type opioid receptor (Homo sapiens, UniProt P41143); experiment: HTS Image-Based Screen for Antagonists of the DOR Receptor. [Related pubchem assays (depositor defined):AID1777, AID1785, AID1786, AID2133]; format: functional
T5 sequence (P41143 whole entry): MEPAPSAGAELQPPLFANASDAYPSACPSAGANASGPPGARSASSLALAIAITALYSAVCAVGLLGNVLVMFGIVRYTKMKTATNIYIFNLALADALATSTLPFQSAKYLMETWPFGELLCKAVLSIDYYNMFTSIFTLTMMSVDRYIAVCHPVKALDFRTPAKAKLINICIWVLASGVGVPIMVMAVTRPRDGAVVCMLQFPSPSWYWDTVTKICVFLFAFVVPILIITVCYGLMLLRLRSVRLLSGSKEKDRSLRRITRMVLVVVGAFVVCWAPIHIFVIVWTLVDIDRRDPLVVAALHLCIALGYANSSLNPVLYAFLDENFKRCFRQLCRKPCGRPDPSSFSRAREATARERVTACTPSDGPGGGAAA

[10] = inhibitors of intracellular T. cruzi replication, confirmation, NIH3T3 host cells, beta-gal luminescence (AID 2044); format: functional, cell-based;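 also: intracellular parasites grown in NIH/3T3 mouse fibroblasts as host cells; luminescent beta-galactosidase reporter signal from transgenic T. cruzi replicating inside host cells; inhibitors lower the luminescence signal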
cells = format: functional
Beta Lactamase = Beta Lactamase (Pseudomonas aeruginosa, UniProt Q932Y6); experiment: beta-lactamase reporter inhibitor potency, dose response, artefact control for TLR9-MyD88 binding inhibitor project, BLA reporter cells, FRET fluorescence (AID 588341); format: cell-based;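 also: cell based assay in CHO-K1 cells stably expressing beta-lactamase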
Sequence of Beta Lactamase (Q932Y6 whole entry): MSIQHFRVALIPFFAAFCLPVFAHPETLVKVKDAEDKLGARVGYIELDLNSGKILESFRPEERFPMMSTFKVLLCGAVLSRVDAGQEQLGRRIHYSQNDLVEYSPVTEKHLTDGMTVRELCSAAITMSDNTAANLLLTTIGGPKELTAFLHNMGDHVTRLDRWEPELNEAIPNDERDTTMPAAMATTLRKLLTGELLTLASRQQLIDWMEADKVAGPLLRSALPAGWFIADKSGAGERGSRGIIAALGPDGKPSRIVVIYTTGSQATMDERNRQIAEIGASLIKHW

[11] = growth suppression of beta-catenin-knockout colon cells, dose response, cell-based, HCT116, human colon tumor (AID 1045); format: functional;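 also: HCT116 colon tumor cells with beta catenin knocked out; cells exposed to compound for 60 hours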
[12] = HepG2 cell cytotoxicity, dose response, cytotoxicity control for non-replicating M. tuberculosis project (AID 489018); format: functional; conditions: Mycobacterium tuberculosis
[13] = Shn3 3'UTR reporter inhibitors, dose response, cell-based, Clone20 osteoblasts, firefly luciferase, cherry-picked (AID 624132); format: functional;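 also: firefly luciferase luminescence from reporter carrying the Shn3 3'UTR in osteoblasts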
[14] = target: T6, Kappa-type opioid receptor (Homo sapiens, UniProt P41145); format: functional
T6 sequence (P41145 whole entry): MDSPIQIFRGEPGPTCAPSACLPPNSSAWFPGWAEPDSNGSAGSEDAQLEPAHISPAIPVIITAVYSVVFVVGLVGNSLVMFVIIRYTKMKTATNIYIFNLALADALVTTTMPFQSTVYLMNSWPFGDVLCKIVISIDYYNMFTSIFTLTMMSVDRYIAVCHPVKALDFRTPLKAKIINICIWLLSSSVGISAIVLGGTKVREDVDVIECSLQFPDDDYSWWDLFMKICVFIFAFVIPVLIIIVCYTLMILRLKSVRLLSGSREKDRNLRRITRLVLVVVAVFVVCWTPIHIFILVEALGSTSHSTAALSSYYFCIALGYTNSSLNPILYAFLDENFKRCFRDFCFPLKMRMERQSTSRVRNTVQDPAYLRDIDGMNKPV

[15] = target: T5, Delta-type opioid receptor; experiment: HTS Image-Based Screen for Agonists of the DOR Receptor. [Related pubchem assays (depositor defined):AID1777, AID1786, AID2133]; format: functional
Fatty acid synthase [16] = target: T7, Fatty acid synthase (Homo sapiens, UniProt P49327); experiment: FAS thioesterase domain inhibitors, dose response, biochemical, endpoint fluorescence intensity, uHTS hits (AID 624327); format: functional;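 also: fluorescence from hydrolysis of an O-methyl fluorescein acyl ester substrate by the enzyme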
T7 sequence (P49327 whole entry, the tested form may be a part): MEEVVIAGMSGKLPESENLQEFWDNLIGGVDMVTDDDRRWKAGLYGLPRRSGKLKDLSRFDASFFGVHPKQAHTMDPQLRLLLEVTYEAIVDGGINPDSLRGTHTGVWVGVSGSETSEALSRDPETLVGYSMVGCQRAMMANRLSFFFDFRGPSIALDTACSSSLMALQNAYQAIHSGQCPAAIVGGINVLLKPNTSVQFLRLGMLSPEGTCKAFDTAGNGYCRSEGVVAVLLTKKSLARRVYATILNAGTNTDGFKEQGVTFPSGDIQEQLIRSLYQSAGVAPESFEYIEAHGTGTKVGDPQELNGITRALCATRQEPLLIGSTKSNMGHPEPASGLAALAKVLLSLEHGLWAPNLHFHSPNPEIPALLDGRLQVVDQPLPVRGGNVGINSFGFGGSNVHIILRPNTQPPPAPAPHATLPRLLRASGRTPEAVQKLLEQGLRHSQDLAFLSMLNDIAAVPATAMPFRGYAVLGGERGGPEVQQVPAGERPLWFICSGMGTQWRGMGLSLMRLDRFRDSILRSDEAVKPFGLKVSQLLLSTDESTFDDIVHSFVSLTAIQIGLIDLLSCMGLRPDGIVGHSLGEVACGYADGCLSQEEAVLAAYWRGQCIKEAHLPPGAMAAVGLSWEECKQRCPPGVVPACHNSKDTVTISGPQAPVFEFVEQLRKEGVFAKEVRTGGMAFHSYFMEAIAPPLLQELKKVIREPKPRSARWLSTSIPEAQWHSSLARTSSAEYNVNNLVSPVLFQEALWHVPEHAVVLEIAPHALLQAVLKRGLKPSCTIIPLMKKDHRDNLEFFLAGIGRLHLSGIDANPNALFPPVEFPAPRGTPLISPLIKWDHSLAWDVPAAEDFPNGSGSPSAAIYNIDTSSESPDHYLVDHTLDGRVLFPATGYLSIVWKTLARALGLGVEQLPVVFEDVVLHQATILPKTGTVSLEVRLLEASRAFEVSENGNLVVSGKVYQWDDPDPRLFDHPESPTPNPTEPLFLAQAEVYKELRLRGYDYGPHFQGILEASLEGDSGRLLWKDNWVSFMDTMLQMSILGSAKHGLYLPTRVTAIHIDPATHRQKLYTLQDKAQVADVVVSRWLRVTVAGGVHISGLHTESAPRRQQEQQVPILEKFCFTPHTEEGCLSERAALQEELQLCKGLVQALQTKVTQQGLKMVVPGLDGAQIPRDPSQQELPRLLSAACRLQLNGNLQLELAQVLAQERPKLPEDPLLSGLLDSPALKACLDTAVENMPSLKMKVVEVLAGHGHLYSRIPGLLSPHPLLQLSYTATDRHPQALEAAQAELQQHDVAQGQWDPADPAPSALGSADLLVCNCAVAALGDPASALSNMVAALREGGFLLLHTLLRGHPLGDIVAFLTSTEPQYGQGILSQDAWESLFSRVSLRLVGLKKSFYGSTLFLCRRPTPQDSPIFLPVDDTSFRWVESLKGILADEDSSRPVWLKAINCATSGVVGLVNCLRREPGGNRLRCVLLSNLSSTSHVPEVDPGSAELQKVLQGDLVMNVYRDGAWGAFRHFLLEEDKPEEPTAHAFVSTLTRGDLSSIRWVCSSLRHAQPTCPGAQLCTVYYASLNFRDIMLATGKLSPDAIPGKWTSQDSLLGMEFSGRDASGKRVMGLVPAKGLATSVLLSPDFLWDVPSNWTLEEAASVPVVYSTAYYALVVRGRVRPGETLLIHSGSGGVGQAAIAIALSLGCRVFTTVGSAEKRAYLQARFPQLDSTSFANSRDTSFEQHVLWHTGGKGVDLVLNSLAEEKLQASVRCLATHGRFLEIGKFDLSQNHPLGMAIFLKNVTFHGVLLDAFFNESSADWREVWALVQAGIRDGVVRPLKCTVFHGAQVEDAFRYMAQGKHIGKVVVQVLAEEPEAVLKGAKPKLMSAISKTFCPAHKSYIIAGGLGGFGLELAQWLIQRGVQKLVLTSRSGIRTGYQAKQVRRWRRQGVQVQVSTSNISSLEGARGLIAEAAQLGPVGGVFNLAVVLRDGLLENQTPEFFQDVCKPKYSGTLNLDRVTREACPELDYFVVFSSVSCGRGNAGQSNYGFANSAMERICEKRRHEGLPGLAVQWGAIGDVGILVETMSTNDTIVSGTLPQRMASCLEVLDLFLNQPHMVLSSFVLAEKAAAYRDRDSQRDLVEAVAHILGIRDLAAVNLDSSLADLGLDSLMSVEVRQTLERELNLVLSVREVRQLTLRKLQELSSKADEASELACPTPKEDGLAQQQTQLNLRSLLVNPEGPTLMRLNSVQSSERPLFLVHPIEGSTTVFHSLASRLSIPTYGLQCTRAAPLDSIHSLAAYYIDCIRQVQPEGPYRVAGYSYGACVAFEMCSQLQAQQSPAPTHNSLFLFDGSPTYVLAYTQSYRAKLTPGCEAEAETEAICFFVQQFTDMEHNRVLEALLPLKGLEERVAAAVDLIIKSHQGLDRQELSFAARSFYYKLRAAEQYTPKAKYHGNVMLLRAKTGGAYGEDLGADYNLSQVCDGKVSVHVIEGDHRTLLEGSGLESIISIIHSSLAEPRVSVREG

[17] = target: T8, Bifunctional protein GlmU (Mycobacterium tuberculosis, UniProt P9WMN3); experiment: Inhibitors of Mycobacterial Glucosamine-1-phosphate acetyl transferase (GlmU). Secondary screen.; parameters: species or system Mycobacterium tuberculosis H37Rv
T8 sequence (P9WMN3 whole entry): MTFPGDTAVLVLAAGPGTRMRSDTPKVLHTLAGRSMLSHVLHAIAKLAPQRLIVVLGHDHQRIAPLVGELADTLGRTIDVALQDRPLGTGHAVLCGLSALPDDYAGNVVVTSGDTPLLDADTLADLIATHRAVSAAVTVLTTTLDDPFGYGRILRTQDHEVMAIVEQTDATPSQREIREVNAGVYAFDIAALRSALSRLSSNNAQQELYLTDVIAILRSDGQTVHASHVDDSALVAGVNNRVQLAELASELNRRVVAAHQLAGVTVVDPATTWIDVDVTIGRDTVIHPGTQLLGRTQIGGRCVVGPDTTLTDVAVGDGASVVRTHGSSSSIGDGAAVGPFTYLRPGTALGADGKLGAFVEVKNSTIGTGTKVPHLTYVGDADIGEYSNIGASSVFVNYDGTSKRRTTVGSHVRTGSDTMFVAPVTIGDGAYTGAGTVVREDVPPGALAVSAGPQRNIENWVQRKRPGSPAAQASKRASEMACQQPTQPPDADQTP

CHO = experiment: cytotoxicity in TLR9-MyD88 CHO cells, dose response, cytotoxicity control for TLR9-MyD88 binding inhibitor project, cell-based, luminescence (AID 588339); format: functional, hamster; conditions: Cricetulus griseus;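 also: CHO cells stably coexpressing TLR9 and MyD88 fusions from primary screen; compound exposure lasted 48 hours before viability readout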
[18] = target: T9, Microphthalmia-associated transcription factor (Homo sapiens, UniProt O75030); experiment: TRPM1 promoter luciferase signal decrease, dose response, MITF inhibitor project, cell-based, SK-MEL-5, cherry-picked, set 3 (AID 493073); format: functional
T9 sequence (O75030 whole entry): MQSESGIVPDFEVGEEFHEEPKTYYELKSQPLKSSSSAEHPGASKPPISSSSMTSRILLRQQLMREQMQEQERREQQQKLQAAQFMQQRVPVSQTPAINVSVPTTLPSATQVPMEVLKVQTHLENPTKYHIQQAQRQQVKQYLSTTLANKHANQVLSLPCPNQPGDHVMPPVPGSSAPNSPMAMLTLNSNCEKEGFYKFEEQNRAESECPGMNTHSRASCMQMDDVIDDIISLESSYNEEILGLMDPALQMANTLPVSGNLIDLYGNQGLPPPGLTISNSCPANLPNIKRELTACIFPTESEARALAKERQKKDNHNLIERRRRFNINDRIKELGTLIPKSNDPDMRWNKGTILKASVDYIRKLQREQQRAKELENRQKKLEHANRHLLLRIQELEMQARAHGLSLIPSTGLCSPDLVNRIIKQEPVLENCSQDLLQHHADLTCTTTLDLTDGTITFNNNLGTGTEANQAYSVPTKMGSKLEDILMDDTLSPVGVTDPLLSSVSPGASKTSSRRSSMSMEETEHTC

[19] = THP-1 cell cytotoxicity, dose response, cytotoxicity control for non-replicating M. tuberculosis project (AID 489025); format: functional
Beta-galactosidase = Beta-galactosidase (Escherichia coli, UniProt Q8VNN2); format: functional
Sequence of Beta-galactosidase (Q8VNN2 whole entry): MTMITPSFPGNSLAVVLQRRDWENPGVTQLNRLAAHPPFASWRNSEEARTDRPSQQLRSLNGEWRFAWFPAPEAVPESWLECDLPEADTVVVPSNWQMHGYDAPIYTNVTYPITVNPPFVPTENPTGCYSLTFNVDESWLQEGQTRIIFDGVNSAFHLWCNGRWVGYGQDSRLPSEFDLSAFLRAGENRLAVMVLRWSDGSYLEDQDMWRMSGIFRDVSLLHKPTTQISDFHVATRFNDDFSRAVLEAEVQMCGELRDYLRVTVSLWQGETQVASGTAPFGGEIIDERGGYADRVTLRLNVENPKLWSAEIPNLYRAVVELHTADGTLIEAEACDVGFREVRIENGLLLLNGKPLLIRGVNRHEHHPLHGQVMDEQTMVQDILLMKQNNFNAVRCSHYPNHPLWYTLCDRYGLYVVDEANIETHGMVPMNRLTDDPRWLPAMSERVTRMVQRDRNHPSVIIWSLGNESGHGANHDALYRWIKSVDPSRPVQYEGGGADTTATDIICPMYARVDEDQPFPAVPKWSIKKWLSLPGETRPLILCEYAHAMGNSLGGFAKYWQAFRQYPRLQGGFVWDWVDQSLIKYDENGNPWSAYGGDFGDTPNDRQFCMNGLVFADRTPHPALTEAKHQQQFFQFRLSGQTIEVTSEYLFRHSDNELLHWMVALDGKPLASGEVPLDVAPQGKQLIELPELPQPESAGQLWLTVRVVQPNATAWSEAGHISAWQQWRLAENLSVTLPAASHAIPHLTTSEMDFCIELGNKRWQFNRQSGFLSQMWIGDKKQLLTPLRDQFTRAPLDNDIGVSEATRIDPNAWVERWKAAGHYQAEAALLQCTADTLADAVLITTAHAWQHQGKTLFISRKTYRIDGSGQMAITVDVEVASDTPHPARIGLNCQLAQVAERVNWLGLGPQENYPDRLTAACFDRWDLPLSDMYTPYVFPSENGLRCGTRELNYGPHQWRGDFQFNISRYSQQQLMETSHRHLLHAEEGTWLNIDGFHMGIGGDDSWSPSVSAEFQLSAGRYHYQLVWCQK

[20] = cytotoxicity toward NIH3T3 fibroblasts, dose response, counter-screen, cell-based, ATP luminescence, mouse fibroblasts (AID 2010); format: functional;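 also: cells exposed to compound for about 90 hours before reading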
Fatty acid synthase [21] = target: T7, Fatty acid synthase; experiment: FAS thioesterase domain inhibitors, dose response, biochemical, kinetic fluorescence intensity (AID 624326); format: functional;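 also: rate of fluorescence rise from hydrolysis of a fluorogenic O-methyl fluorescein ester substrate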
[22] = target: T6, Kappa-type opioid receptor; format: functional; remark: listed apart in the source
[23] = growth suppression of PTEN-null colon cells, dose response, cell-based, HCT116 PTEN knockout (AID 1047); format: functional;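 also: HCT116 colon tumor cells with PTEN knocked out; cells exposed to compound for 60 hours before readout; potency for loss of cell viability measured by luminescence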
[24] = control 3'UTR Renilla luciferase suppression, dose response, counter-screen for Shn3 inhibitor project, cell-based, Clone20-Shn3RL, cherry-picked (AID 624133); format: functional
[25] = Vero E6 cell cytotoxicity, dose response, cytotoxicity control for non-replicating M. tuberculosis project, secondary assay (AID 492998); format: functional, VeroE6; conditions: Vero C1008
[26] = HepG2 cell cytotoxicity, dose response, cytotoxicity control for Shn3 inhibitor project, CellTiter-Glo, cherry-picked (AID 624134); format: functional, cell-based

O=C(CCc1ccccc1)c1ccc2c(c1)OCCCO2
active: IC50 [1] 32.8 µM | IC50 [2] 27.3 µM | IC50 [3] 9.59 µM | IC50 (Caspase-3 [4]) 28.9 µM

C(=N\Nc1cc(N2CCCC2)nc(N2CCCC2)n1)/c1ccccc1
inactive: IC50 (Caspase-3 [7]) > 99 µM | IC50 [8] > 99 µM
active: IC50 [5] 89.9 µM | IC50 [6] 15.1 µM

Cc1cc(N/N=C/c2ccc3c(c2)OCO3)nc2ccccc12
active: IC50 [1] 17.6 µM | IC50 [2] 21.9 µM | IC50 [3] 4.64 µM | IC50 (Caspase-3 [4]) 27.6 µM

CC(=O)OCCNc1cc(Sc2nc3ccccc3[nH]2)c2nonc2c1[N+](=O)[O-]
17.1 µM: IC50 [22]
active: EC50 [10] 2.47 µM | IC50 (cells) 5.83 µM | EC50 [11] 4.64 µM | CC50 [12] 12.4 µM | AC50 [13] 1.86 µM | IC50 [14] 5.01 µM | IC50 (Fatty acid synthase [16]) 1.75 µM | IC50 [17] 116 µM | IC50 (CHO) 3.06 µM | AC50 [18] 11.5 µM | CC50 [19] 19.9 µM | EC50 [20] 3.66 µM | IC50 (Fatty acid synthase [21]) 2.59 µM | EC50 [23] 4.91 µM | AC50 [24] 6.26 µM | CC50 [25] 13.5 µM | AC50 [26] 17.5 µM
inactive: EC50 (Mu-type opioid receptor) > 32 µM | IC50 [9] > 32 µM | IC50 (Beta Lactamase) 10 µM | EC50 [15] > 32 µM | EC50 (Beta-galactosidase) > 31.5 µM
